Laboratory results reported in article PMC4579270, “Identification and Characterization of an Irreversible Inhibitor of CDK2” (Chemistry & Biology, 2015).
Like-named read-outs stand apart in the source and are kept apart here.

What was measured:
GCK (MAP4K3) = assay: Dundee kinase screen re-test (standard format and 4 hour pre-incubation); format: biochemical
Protocol: (§1) Prior to determining its cellular activity, we carried out a screen to assess its selectivity against a panel of 131 protein kinases under conditions that would not distinguish between a reversible or irreversible mode of action. […] These 13 kinases and 29 additional kinases, selected for their known sensitivity to other inhibitors within the purine series, were then tested in a modified screening format in which the assay was repeated following a 4-hr pre-incubation (Table S3B). […] However, conformational flexibility around the active site may promote such an interaction with a residue from another part of the structure ([Martin et al., 2012]).
(§2) Table S3, Related to Figure 4. NCL-0006300 protein kinase selectivity. […]
(§3) (B) Selected kinases were re-tested in the Dundee kinase screen against NU6300 at a single concentration of 0.5 µM both in the standard assay format and following a 4 hour pre-incubation in the presence of NU6300. Kinases which have very low activity after the 4 hour incubation so that results might not be wholly reliable are boxed in salmon. Kinases where the activity after a 4 hour pre-incubation is < 50% that in the standard assay format are highlighted in red.

[1] = tested on: phosphorylation of Rb at Thr821 in SKUT-1B cells; assay: Inhibition of Rb phosphorylation in cells (western blot); format: cell-based; settings: Homo sapiens, Skut1B, 1 hr exposure
Protocol: The cellular potency of NU6300 was examined by measuring the inhibition of Rb phosphorylation following exposure of SKUT-1B cells to the inhibitor for 1 hr. Pre-incubation with 50 μM NU6300 inhibited phosphorylation of Rb at […], a known CDK2 phosphorylation site, by 43%. […] This difference just reached statistical significance (p = 0.04). […] Representative of three different experiments. […] Protein expression levels of phospho-Rb ([…]) were normalized to the levels of total Rb in respective samples using densitometry. Relative protein expression levels are presented as percentage of inhibition of phosphorylation of Rb ([…]) compared with the control cells for each time point. Error bars represent the mean value and SD from three independent experiments. Statistical analysis was performed using the unpaired Student's t test, one-tailed. Western blot analysis was carried out as described previously ([Thomas et al., 2011]) using rabbit anti-[…] phospho-Rb antibody (Invitrogen) or mouse antihuman Rb antibody (BD Pharmingen) to detect phosphorylated and total retinoblastoma protein, respectively. Sample preparation is described in Supplemental Experimental Procedures. page 14: formate) before cryo-coolling. Data processing was carried out using programs of the CCP4 suite (CCP4, 1994). The structure of NU6300 bound to CDK2/cyclin A was solved by molecular replacement using Phaser (McCoy et al., 2007), using as the search model a high-resolution structure of a recruitment peptide bound to CDK2/cyclin A ((Cheng et al., 2006) PDB code 2CCH). A single clear solution was found with an inhibitor bound to each of the two copies of the binary complex in the asymmetric unit. This solution was then subjected to rigid body refinement in REFMAC (Murshudov et al., 1997), to reveal unambiguous electron density in the CDK2 ATP-binding site, consistent with the expected shape of the inhibitor. A model of NU6300 was created using Coot (Emsley et al., 2010). The inhibitor atoms were kept in all subsequent models during refinement carried out by additional rounds of manual rebuilding in Coot and restrained refinement in REFMAC5, including TLS refinement. Towards the end of refinement, waters were added using the Coot water picking utility and manually verified. Western blotting SKUT-1B cells (ATCC, Manassas, USA) were grown in MEM medium supplemented with non-essential amino acids, L-Glutamine, sodium pyruvate and 10% (v/v) foetal calf serum (Sigma, UK). […] Cells were harvested at different time points after the washout and lysed by adding PhosphoSafe extraction reagent (Merck, UK) containing protease inhibitor cocktail (Roche, UK) at the manufacturer's recommended dilution. The harvested cell suspension was placed in an eppendorf tube on ice, centrifuged at 13,000x g for 5 min, and the supernatant (cell lysate) removed for analysis. Subsequent western blot analysis was carried out as described in (Thomas et al., 2011) using rabbit anti-[…] phospho-Rb antibody (Invitrogen, Paisley, UK Cat No. 44-[…]) or mouse anti-human Rb antibody (BD Pharmingen, Oxford, UK Cat No. 554136) to detect phosphorylated and total retinoblastoma protein, respectively.

AMPK (hum) = assay: Dundee kinase screen re-test (standard format and 4 hour pre-incubation); format: biochemical, human
Protocol: as §1, §2
Dundee protein kinase screen (Bain et al., 2007). […]
as §3

HIPK3 = HIPK3 (Homo sapiens, UniProt Q9H422); assay: Dundee protein kinase screen; format: biochemical; settings: HIPK3, 1µM; read-out: %Remaining activity at 1µM NU6300
Chain of HIPK3 (Q9H422 whole entry): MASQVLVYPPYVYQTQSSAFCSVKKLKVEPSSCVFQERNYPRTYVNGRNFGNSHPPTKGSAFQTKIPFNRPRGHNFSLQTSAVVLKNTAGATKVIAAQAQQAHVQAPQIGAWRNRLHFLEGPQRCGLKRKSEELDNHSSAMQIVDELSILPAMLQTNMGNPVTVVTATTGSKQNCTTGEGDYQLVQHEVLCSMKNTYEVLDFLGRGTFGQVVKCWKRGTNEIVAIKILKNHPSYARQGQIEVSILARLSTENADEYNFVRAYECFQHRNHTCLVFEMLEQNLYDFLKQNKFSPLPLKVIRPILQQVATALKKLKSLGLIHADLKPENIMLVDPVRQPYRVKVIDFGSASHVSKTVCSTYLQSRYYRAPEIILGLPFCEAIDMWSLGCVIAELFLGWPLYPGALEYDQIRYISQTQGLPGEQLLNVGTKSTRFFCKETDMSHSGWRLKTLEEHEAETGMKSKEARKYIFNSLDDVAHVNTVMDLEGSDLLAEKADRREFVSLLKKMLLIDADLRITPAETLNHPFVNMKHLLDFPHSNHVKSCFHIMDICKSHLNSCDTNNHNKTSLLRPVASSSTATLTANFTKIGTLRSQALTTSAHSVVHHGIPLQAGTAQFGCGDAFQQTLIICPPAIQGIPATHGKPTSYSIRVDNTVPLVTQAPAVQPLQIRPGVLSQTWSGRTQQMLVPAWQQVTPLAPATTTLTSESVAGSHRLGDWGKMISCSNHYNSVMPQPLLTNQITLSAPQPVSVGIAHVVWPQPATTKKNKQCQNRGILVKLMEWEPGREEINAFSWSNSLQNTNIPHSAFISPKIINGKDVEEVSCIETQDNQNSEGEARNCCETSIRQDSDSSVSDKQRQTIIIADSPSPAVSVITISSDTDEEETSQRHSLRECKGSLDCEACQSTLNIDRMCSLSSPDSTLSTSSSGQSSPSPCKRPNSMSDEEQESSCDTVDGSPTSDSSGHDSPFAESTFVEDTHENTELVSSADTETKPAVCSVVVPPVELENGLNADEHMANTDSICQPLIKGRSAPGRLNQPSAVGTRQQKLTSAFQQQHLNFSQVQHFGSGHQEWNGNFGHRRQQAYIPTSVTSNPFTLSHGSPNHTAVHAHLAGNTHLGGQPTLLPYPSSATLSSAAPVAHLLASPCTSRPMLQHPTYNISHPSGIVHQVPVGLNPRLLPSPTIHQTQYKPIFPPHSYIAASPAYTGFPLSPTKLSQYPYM
Protocol: as §1
(§4) Table S3, Related to Figure 4. NCL-0006300 protein kinase selectivity. (A) NU6300 was tested at a single concentration of 1µM against 131 protein kinases present in a Dundee protein kinase screen (Bain et al., 2007). Values given are % activity remaining and are the average of duplicate measurements: 0-25% (red), 26-50% (yellow), 51-80% (black) and above 81% (green). The kinase domain sequences (as defined by UniProt) of […]
(§5) have a lysine residue at a position close to CDK2 Lys88 or Lys89. However, in the structure of tyrosine-protein kinase BTK (PDB ID: 3GEN) the residue equivalent to CDK2 Asp86 is Cys481 and therefore there is the potential for a covalent adduct to be formed through this side chain. […]

BRK = BRK (Homo sapiens, UniProt Q13882); assay: Dundee protein kinase screen; format: biochemical; settings: read-out: %Remaining activity at 1µM NU6300
Chain of BRK (Q13882 whole entry): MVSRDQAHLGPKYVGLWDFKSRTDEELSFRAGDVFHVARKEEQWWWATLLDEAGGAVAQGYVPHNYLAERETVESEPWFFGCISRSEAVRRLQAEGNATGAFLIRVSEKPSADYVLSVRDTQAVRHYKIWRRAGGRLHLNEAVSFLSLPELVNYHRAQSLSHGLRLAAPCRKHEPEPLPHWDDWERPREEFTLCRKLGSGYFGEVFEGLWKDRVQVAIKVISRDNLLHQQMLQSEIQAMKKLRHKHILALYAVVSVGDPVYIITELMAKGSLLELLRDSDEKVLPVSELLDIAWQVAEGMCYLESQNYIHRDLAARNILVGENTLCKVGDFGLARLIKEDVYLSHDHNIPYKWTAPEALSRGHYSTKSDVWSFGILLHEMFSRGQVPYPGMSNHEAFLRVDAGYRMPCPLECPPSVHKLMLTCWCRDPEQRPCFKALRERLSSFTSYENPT
Protocol: as §1, §4, §5

AMPK = assay: Dundee protein kinase screen; format: biochemical
Protocol: as §1, §4, §5

GCK = GCK (Homo sapiens, UniProt Q12851); assay: Dundee protein kinase screen; format: biochemical; settings: read-out: %Remaining activity at 1µM NU6300
Chain of GCK (Q12851 whole entry): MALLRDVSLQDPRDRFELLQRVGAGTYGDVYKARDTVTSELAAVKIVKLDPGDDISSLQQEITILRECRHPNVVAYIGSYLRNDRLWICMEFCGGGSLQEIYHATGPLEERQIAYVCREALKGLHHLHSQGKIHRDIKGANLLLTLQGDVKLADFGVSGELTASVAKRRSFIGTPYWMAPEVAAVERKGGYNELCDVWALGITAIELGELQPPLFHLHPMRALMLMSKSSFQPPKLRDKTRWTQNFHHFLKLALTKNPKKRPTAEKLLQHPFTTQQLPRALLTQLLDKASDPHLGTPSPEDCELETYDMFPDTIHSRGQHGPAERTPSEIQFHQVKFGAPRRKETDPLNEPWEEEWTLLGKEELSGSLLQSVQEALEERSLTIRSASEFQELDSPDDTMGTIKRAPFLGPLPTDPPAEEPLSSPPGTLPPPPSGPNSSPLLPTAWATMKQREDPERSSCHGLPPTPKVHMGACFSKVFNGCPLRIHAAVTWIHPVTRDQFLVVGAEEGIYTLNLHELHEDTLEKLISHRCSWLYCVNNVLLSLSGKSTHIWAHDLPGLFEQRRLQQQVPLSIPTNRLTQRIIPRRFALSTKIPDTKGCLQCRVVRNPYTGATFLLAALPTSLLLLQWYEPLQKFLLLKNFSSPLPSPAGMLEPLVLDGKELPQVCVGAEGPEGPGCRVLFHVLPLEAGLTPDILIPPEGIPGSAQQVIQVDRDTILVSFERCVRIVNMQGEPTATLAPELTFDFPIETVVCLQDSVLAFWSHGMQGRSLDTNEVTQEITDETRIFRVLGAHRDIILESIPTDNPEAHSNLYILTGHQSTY
Protocol: as §1, §4, §5

CK1δ = CK1δ (Homo sapiens, UniProt P48730); assay: Dundee protein kinase screen; format: biochemical; settings: read-out: %Remaining activity at 1µM NU6300
Chain of CK1δ (P48730 whole entry): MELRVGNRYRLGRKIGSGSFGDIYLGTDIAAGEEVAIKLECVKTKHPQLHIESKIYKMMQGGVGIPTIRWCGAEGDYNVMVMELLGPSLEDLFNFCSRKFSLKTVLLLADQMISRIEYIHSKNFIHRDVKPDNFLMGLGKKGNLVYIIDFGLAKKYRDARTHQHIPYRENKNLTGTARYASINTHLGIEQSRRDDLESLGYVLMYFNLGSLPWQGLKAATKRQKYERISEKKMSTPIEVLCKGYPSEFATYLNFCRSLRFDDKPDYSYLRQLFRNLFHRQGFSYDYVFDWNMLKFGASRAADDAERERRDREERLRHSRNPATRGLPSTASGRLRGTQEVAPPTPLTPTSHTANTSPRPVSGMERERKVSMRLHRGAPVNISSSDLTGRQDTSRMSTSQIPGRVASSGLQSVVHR
Protocol: as §1, §4, §5

In the case of C=CS(=O)(=O)c1ccc(Nc2nc(OCC3CCCCC3)c3nc[nH]c3n2)cc1 [NU6300, 6-(cyclohexylmethoxy)-N-(4-(vinylsulfonyl)phenyl)-9H-purin-2-amine], the “%Remaining activity at 0.5µM NU6300 - 4hr RT preincubation” value (GCK (MAP4K3); 0.5µM, 4hr RT preincubation) is reported as 29%, the “%Remaining activity at 0.5µM NU6300 - Usual assay format” value (GCK (MAP4K3); 0.5µM, usual format) is reported as 89% and the “additional loss of activity after pre-incubation” value (GCK (MAP4K3); 4-hr pre-incubation vs usual format, 0.5 µM) is reported as over 50%. The inhibition at 50 µM ([1]; before washout, read-out: inhibition of phosphorylation of Rb at Thr821) was 43%, the inhibition at 50 µM ([1]; then 1-hr washout in drug-free media, read-out: inhibition of phosphorylation of Rb at Thr821 after washout) was 33% and the “%Remaining activity at 0.5µM NU6300 - 4hr RT preincubation” value (AMPK (hum); 4hr RT preincubation) was 73%. For the same molecule, the “%Remaining activity at 0.5µM NU6300 - Usual assay format” value (AMPK (hum); usual format) was 70%, the remaining activity at 1 µM (HIPK3) was 96% and the remaining activity at 1 µM (BRK) was 59%. For the same molecule, the “%Remaining activity at 1µM NU6300” value (AMPK) was 47%, the remaining activity at 1 µM (GCK) was 26% and the remaining activity at 1 µM (CK1δ) was 83%.
